Where two headings read alike, the source gives them in different places.
Experiments:
patients with mCRPC [1] = details: cited from earlier work
patients with mCRPC [2] = details: cited from earlier work; remark: listed apart in the source
[3] = cited from earlier work
[4] = Metal scavenger (DTPA) formulations: radiochemical stability by radio-TLC at 40° C. (Table 17); format: physicochemical; details: 11.3 mg/ml sodium ascorbate formulation, 0.0005-0.01 mg/ml DTPA
Experimental: The mixture was then divided into four samples which were diluted with suitable amount WFI and DTPA solution to achieve concentrations of 0.0005 mg/ml, 0.001 mg/ml, 0.005 mg/ml, and 0.01 mg/ml of DTPA in the final formulations. […] The samples were kept at 40° C.

[5] = Process A / process B injection stored at 5, 22.5, 32.5 and 40° C.: radiochemical purity by radio-TLC (Tables 21, 22); format: physicochemical; details: 5-40° C.
Experimental: The radio-TLC method was performed as follows: 5 μl or 10 μl of the sample was spotted onto the application line (1.5 cm from the lower edge of the plate) of a TLC plate (Merck Silica Gel 60 F254, plate size 20×100 mm). The TLC plate was developed in a TLC chamber using 0.1 M citric acid (adjusted to pH 5) as mobile phase. The plate was removed from the chamber when the eluent front reached 7.5 cm distance from the application line. The plates were analyzed with a radio-TLC scanner after secular equilibrium between ^225Ac and daughter nuclides was reached (minimum of 7 hours). […]
In process B, radiolabeling is performed in 11.3 mg/ml sodium ascorbate solution and the 0.04 M HCl is neutralized by adding 1 ml of 0.04 M NaOH solution into the reactor prior to labeling. The final formulation in process B is prepared to an intended radioactivity concentration by diluting with 11.3 mg/ml sodium ascorbate solution.
To compare the processes, ^225Ac-PSMA I&T injection was prepared at around 1 mCi scale using both processes. […] Radioactivity concentration was 468 kBq/ml in process A and 969 kBq/ml in process B. […]
The purity of ^225Ac-PSMA I&T samples was analyzed by the radio-TLC and HPLC fraction collection methods described previously at different time points.

[6] = subgroup of 11 patients with prior ^177Lu-PSMA treatment
[7] = subgroup with prior ^177Lu-PSMA radioligand therapy

(25)-2-[[(1S)-1-carboxylato-5-[[8-[[(5R)-5-carboxylato-5-[[(2R)-2-[[(2R)-2-[[(4R)-4-carboxylato-4-[4,7,10-tris(carboxylatomethyl)-1,4,7,10-tetrazacyclododec-1-yl]butanoyl]amino]-3-(4-hydroxy-3-iodophenyl)propanoyl]amino]-3-phenylpropanoyl]amino]pentyl]amino]-8-oxooctanoyl]amino]pentyl]carbamoylamino]pentanedioate; hydron; actinium-225(3+) [^225Ac-PSMA I&T]
Grade 3 anemia after TAT (patients with mCRPC [1]; 2 of them with grade 2 anemia at baseline): 3 of the 14 patients | Biochemical response PSA50 (patients with mCRPC [1]; 14 patients, 7.8 MBq per cycle): 50% | Grade 1 nephrotoxicity (patients with mCRPC [1]; 14 patients, FIG. 13): one | Hematologic toxicity (patients with mCRPC [1]; 14 patients, FIG. 13): mild | Acute toxicity during hospitalization (patients with mCRPC [1]; 14 patients): No acute toxicity | Best PSA response after TAT (PSA decline ≥50%) (patients with mCRPC [1]; 14 patients): 7 patients | Grade 3 leukopenia (patients with mCRPC [1]; 14 patients): 1 patient | Major toxicity (patients with mCRPC [1]; 14 patients): xerostomia | Newly diagnosed grade 1 or 2 xerostomia after TAT (patients with mCRPC [1]; 14 patients): 5 patients | No PSA decline at any time (patients with mCRPC [1]; 14 patients): Three | No xerostomia at all (patients with mCRPC [1]; 14 patients): One | PSA decline of any amount (patients with mCRPC [1]; 14 patients): 11 patients | Preexisting xerostomia after ^177Lu-PSMA, no worsening after TAT (patients with mCRPC [1]; 14 patients): Eight | Any PSA decline (patients with mCRPC [1]; [6]): 8 patients | PSA decline of at least 50% (patients with mCRPC [1]; [6]): 5 patients | Any PSA decline (patients with mCRPC [1]; [7]): 73% | PSA decline ≥50% (patients with mCRPC [1]; [7]): 45% | Biochemical response PSA50 (patients with mCRPC [2]; 1 patient, 8 MBq per cycle): 100% | Major toxicity (patients with mCRPC [2]; 1 patient, 8 MBq per cycle): xerostomia | Main TAT-related side effect (patients with mCRPC [2]; already preexisting after 10 cycles of RLT): grade 2 xerostomia | Hematological side effects (patients with mCRPC [2]; human, in vivo): No TAT-related grade 3/4 hematological side effects | Response (patients with mCRPC [2]; two cycles after failure of ^177Lu-PSMA-617): encouraging response | Absorbed dose, left kidney ([3]; 8.1 MBq, SPECT at 24 h p. i.): 0.18 SV(RBE=5)MBq | Absorbed dose, right kidney ([3]; 8.1 MBq, SPECT at 24 h p. i.): 0.17 SV(RBE=5)MBq | Absorbed dose, small lesion in the right hip ([3]; human, in vivo): 0.26 SV(RBE=5)MBq | Effect of DTPA on the stability [4]: significantly reduce the stability | Radiochemical purity by the radio-TLC method after 120-hour time point [5]: greater than 98%

— patent US12721912B2, “Radiopharmaceutical compositions for actinium in targeted radionuclide therapy” (Curium US LLC, priority 2024, dated 2026)
